Source: US20100160443A1, “COMPOUNDS USEFUL FOR TREATING NEUROLOGICAL DISORDERS” (Yissum Research Development Company of The Hebrew …, priority 2003, published 2010)
“Also recorded” adds a separate entry of the source. Read-outs that look alike come from different tables or passages of the source. Marks after values point to notes of the source that are not given here.

Assays:
[1] = cited from earlier work
[2] = tested on: maximal electroshock (MES) test; conditions: rat, cited from earlier work
[3] = tested on: tactile allodynia in rats with SNL neuropathy; conditions: i.p., rat; literature data (footnoted); cited from earlier work
[4] = tested on: tactile allodynia in rats with SNL neuropathy; assay: Tactile allodynia (von Frey filaments) in the spinal nerve ligation (SNL) model of neuropathic pain; format: in vivo, rat; conditions: for ED50: Rattus norvegicus, 1 h, read-out: ED50 (tactile allodynia threshold)
Description: The effect on neuropathic pain (tactile allodynia) was measured 5-6 days following operation as disclosed above. Rats responding to mechanical stimuli of 10 g or less (in the operated leg) were eligible for the study and were included in the drug administration regime.
Briefly, under ketamine-xylazine anesthesia the rat was placed in a prone position and the left paraspinal muscles were separated from spinous processes at the L4-S2 level. Part of the L6 transverse process was removed and the L4-L6 spinal nerves were identified. The L5-L6 spinal nerves were isolated and tightly ligated and cut, distal to the dorsal root ganglion and proximal to the formation of the sciatic nerve. Following complete homeostasis the wound was sutured.
A volume of 4 ml/kg (volume of injected suspension/rat body weight) was then injected to the rats. […] The three drugs and the control vehicle were administered i.p. (intraperitoneally) to rats at postoperative days 7, 14 and 21 in a double blind randomized crossover manner.
The rat was placed on a metal mesh floor covered with a transparent plastic dome, a period of acclimatization was allowed prior to testing. VFFs were applied from underneath the mesh floor to the plantar surface of the foot. Each trial consisted of repeated applications of each of the VFFs in an ascending order for 5 times, each for a period of 1 second. testing between two consecutive ascending VFFs was separated by period of 2 min. If the rat withdrew the foot at least 3 times out of 5 at a specific VFF no further ascending filaments were tested and this filament was considered as a withdrawal threshold (response). Mechanical stimulus trials with the series of ascending VFF were repeated 2 times for a given time point. The repeated measurements were averaged and taken as the paw withdrawal threshold on a given time point.
The absolute threshold and the difference in the allodynic threshold (time point minus baseline) values were tested using Mann-Whitney Test and Kruskal-Wallis Nonparametric test (two tailed) followed by Dunn's Multiple comparison test. The ED50 (median effective dose) was calculated by using Probit analysis method.
Briefly, under ketamine-xylazine anesthesia (85 mg kg^−1, i.p and 13 mg kg^−1, i.p, respectively) rats were placed in a prone position and paraspinal muscles on the left were separated from the L4-S2 spinous processes. Part of the L6 transverse process was removed and the underlying L4-L6 spinal nerves were identified. The L5 and L6 spinal nerves were isolated, tightly ligated with 5-0 silk, and cut just distal to the ligature. The ligature was approximately 8 mm distal to the corresponding dorsal root ganglion (DRG). Following complete homeostasis the wound was sutured in layers, the skin closed with Michel clips, topical bacteriostatic power was applied, and 20000 units of duplo-penicillin was injected intramuscularly (i.m.).
We used a set of 9 nylon von Frey monofilaments (VFF, Semmes-Weinstein monofilaments, Stoelting, Wood Dale, Ill., USA) to quantify foot withdrawal in response to normally innocuous tactile stimuli. […] Forces were calibrated by lowering filaments onto the pan of an electronic balance until they just bent.
Rats were placed on a raised wire mesh screen (gaps 4 mm×4 mm), which allowed access to the plantar surface of the hindpaw from below. They were covered with a transparent plastic dome, 13 cm high, which prevented rearing on the hindlimbs. A period of 20 min was allowed for acclimation prior to sensory testing. The mid-plantar hindpaw skin just caudal to the footpads, half way between medial and lateral edges of the foot, was subjected to a series of 5 brief probes, spaced at about 1 s. Each such stimulus was sufficient to just bend the filament. Testing began with the filament with the weakest initial bending force (0.6 g). […] Response threshold was the bending force of the first monofilament in the series that evoked a criterion ≧⅗ responses.

[5] = tested on: neural tube defects (NTDs); conditions: cited from earlier work
[6] = tested on: motor performance (rotarod test); assay: Neurological motor dysfunction tests (accelerating rotarod, observation for sedation)
Description: On the day of testing, a baseline response was obtained, and rats were subsequently administered drug or vehicle. […] In addition, we examined our rats individually for signs of motor dysfunction and sedation as assessed by posture and gate during spontaneous and induced movement, grooming, chewing, stepping reflex, and startle reflex evoked by tapping on the cage.
For each drug and dose, attenuation of tactile allodynia (threshold measured in g) was measured. […] These areas under the response curve values for every group of rats per dose were evaluated against vehicle treatment using the nonparametric Wilcoxon one tailed test (dose of drug tested vs. vehicle on the same treatment). […] A p value <0.05 was considered statistically significant.

[7] = tested on: maximal electroshock (MES) test; assay: Anticonvulsant activity, maximal electroshock (MES) test; format: in vivo; conditions: different study, data not shown
Description: Pain 73, 223-230); Blom, 1962 (BLOM, S. (1962). Trigeminal neuralgia: its treatment with a new anticonvulsant drug. Lancet; 1, 839-840); Rogawski & Loscher, 2004b (ROGAWSKI, M. A., & LOSCHER, W. (2004b). The neurobiology of antiepileptic drugs for the treatment of nonepileptic conditions. Nat. Med., 10, 685-692)). The availability of ED50 data for a series of new anticonvulsant isomers and analogues of VPD (valpromide) provides an opportunity for testing this hypothesis. […] Philadelphia: Lippincott Williams & Wilkins)).

[8] = p.o., taken from previous studies
[9] = i.p., rat, 60 min post injection, DID at 120 min

NC(=O)N1c2ccccc2C=Cc2ccccc21 [CBZ, carbamazepine]
Brain-to-plasma ratio ([1]; literature data): 1.0^i | MES-ED50 [2, 8]: 5.4^a mg kg^−1 | SNL-ED50 [3]: >30^c mg kg^−1

CCC(C)C(CC)C(N)=O (stereo not shown) [VCD, 2-ethyl-3-methyl-pentanoic acid amide]
ED50 ([4]; ip): 52.3 mg/kg | dose dependence of the antiallodynic effect ([4]; i.p., rat): in a dose dependent manner | antiallodynic effect / effectiveness for treating neuropathic pain ([4]; rat, in vivo): effective for treating neuropathic pain | SNL-ED50 ([4]; rat, in vivo, ip): 52 mg/kg | time of maximal effect after administration ([4]; rat, in vivo, ip): 60 min | MES-ED50 [2, 8]: 29^c mg kg^−1 | teratogenicity ([5]; literature): distinctly less teratogenic than VPA | neurological motor dysfunction or sedation at the highest drug dose tested ([6]; highest drug dose tested, normal rats): not sufficient to cause neurological motor dysfunction or sedation

CC1(C)C(C(N)=O)C1(C)C [TMCD, 2,2,3,3-tetramethylcyclopropanecarboxamide]
ED50 ([4]; ip): 84.5 mg/kg | antiallodynic effect / effectiveness for treating neuropathic pain ([4]; rat, in vivo): exhibit antiallodynic effect; also recorded: effective for treating neuropathic pain | dose dependence of the antiallodynic effect ([4]; rat, in vivo, ip): in a dose dependent manner | time of maximal effect after administration ([4]; rat, in vivo, ip): 60 min | anticonvulsant activity in the rat-MES test [7]: without any anticonvulsant activity

CNC(=O)C1C(C)(C)C1(C)C [M-TMCD, N-methyl-2,2,3,3-tetramethylcyclopropanecarboxamide]
ED50 ([4]; ip): 41 mg/kg | antiallodynic effect / effectiveness for treating neuropathic pain ([4]; rat, in vivo): effective for treating neuropathic pain | dose dependence of the antiallodynic effect ([4]; rat, in vivo, ip): in a dose dependent manner | time of maximal effect after administration ([4]; rat, in vivo, ip): 60 min | teratogenicity ([5]; in vivo): lack of teratogenicity

CCC(C)C(CC)C(=O)O (stereo not shown) [VCA, 2-ethyl-3-methyl-pentanoic acid]
SNL-ED50 [4, 9]: >300 mg/kg

CC(C)C(C(=O)O)C(C)C [DIA, diisopropylacetic acid]
antiallodynic effect / effectiveness for treating neuropathic pain ([4]; rat, in vivo): effective for treating neuropathic pain | SNL-ED50 ([4]; rat, in vivo, ip): >300 mg/kg | lowest effective dose (significant increase of the allodynic threshold vs vehicle) ([4]; rat, in vivo, ip): 300 mg/kg | rats regarded as protected at the highest dose ([4]; rat, in vivo, ip): 25%

CCCC(CCC)C(=O)NC [MVPD, N-methyl-valpromide, reference compound]
SNL-ED50 [4, 9]: >120 mg/kg | MES-ED50 [2, 8]: 65 mg/kg

Nc1nnc(-c2cccc(Cl)c2Cl)c(N)n1 [LTG, lamotrigine]
Brain-to-plasma ratio ([1]; literature data): 0.4^h | MES-ED50 [2, 8]: 1.3^a mg kg^−1 | SNL-ED50 [3]: >100^d mg kg^−1

NC(=O)OCC(COC(N)=O)c1ccccc1 [FBM, felbamate]
Brain-to-plasma ratio ([1]; literature data): 0.64^f | MES-ED50 [2, 8]: 25.3^a mg kg^−1 | SNL-ED50 [3]: >600^d mg kg^−1

NCC1(CC(=O)O)CCCCC1 [GBP, gabapentin]
Brain-to-plasma ratio ([1]; rat, in vivo): 0.85^e | MES-ED50 ([2]; in vivo, po): 14.8^a mg kg^−1 | SNL-ED50 [3]: 34^d mg kg^−1

CC1(C)C(C(=O)O)C1(C)C [TMCA, 2,2,3,3-tetramethylcyclopropanecarboxylic acid]
antiallodynic effect / effectiveness for treating neuropathic pain ([4]; SNL model, rat): exhibit antiallodynic effect | anticonvulsant activity in the rat-MES test [7]: without any anticonvulsant activity

CCCC(CCC)C(N)=O [VPD, valpromide, reference compound]
SNL-ED50 [4, 9]: 61 mg/kg | Brain-to-plasma ratio ([1]; literature data): 0.84^c | MES-ED50 [2, 8]: 32^b mg kg^−1 | neurological motor dysfunction or sedation at the highest drug dose tested ([6]; rat, in vivo): not sufficient to cause neurological motor dysfunction or sedation
